How the values were obtained:
ER-α mRNA in MCF-7 cells = experiment: Quantitative RT-PCR of ER-α mRNA in MCF-7 cells; assay type: cell-based, human
Description: (§1) It should however be understood that the augmented expression of ER-α and PR presented in FIGS. 1-3 could have in principle originated from increase in either transcription or translation associated with the respective steroid receptor genes. Therefore the effects of long term incubation with 1,3cPP on the respective ER-α and PR mRNA levels were examined. Quantitative RT-PCR was carried out with a Light Cycler as described. […] In contrast, only 20 μM 1,3-cPP were required to induce 7-fold increase in the ER-α mRNA in T47D clone 8 cells (FIG. 4D). The analogous data for PR are depicted for MCF-7 cells in FIGS. 5A-B where at 20 μM, there was a 3 fold increase in the normalized PR mRNA expression on the 8th day. This increase receded to about 1.5-fold by the 11th day.
MCF-7 and T47D cells were cultured and treated as described above. Total cellular RNA was extracted with TRI reagent according to the manufacturer's instructions (Molecular Research Center, Inc. Cincinnati, Ohio). Reverse transcription (RT) was performed in a total reaction mixture of 20 μl with 1-5 μg RNA by first heating to 65° C. for 5 min in the presence of 25 μg/ml Oligo (dT)12-18, and 0.5 mM deoxynucleotide triphosphates (dNTP). The RT reaction mixture was then quickly cooled on ice. […]
(§2) RT-PCR was carried out on a programmable thermal controller instrument according to standard protocols, where the annealing temperatures were 58° C. for ER-α and 56° C. for PR. […] The PCR products were diluted and used to build a standard curve for the quantitative PCR which was carried out in a Light Cycler instrument (Roche Diagnostics, Mannheim, Germany). […] For each control and test sample, the amount of the constitutively expressed house keeping enzyme glyceraldehyde-3-phosphate dehydrogenase (GAPDH) mRNA was quantified by using appropriate primers and the quantity of ER-α and PR mRNA were normalized to the quantity of GAPDH mRNA in each sample. The relative amounts of ER-α and PR mRNA were expressed as normalized 1,3cPP treatment values divided by the normalized control values.

MCF-7 cells = experiment: Anti-tumor assay, MCF-7 tumors in athymic CD-1 mice; assay type: in vivo
Description: To test this possibility, we followed the procedure of Kurokawa et al. Female athymic outbred CD-1 mice were implanted with a slow release estradiol tablet and injected intra-fat-pad (i.f.p.) in the lower right abdomen 3×10^6 viable MCF-7 cells (see Materials and Methods). Twelve days later, when the tumors became palpable, mice were randomly allocated into two groups, each with six mice. The control group was injected with PBS i.p. and the treatment group was injected with 0.5 mg 1,3cPP dissolved in PBS i.p. in the lower left abdomen on day 1,3,6, and 8. Tumor size was then measured 2-3 times a week. In the control group, the tumors grew continuously and reached an average size of >1250 mm^3. The origin of the large variation in tumor size was due to one mouse with a relatively small tumor in this group.
Female athymic outbred CD-1 mice 12 weeks of age were obtained from the animal breeding center of our Institute. Animals were maintained and treated according to “Principles of laboratory animal care”, (NIH publication no. 85-23) under the supervision of the Council for Experiments on animals, of our Institute. Mice were anesthetized and implanted subcutaneously with a 0.25 mg, 21-day release 17β-estradiol pellet (Innovative Research of America, Sarasota, Fla.) in the dorsal space and injected intra-fat-pad (i.f.p.) in the lower right abdomen with 3×10^6 MCF-7 cells. Twelve days later, when the tumors became palpable, mice were randomly allocated into two groups, each with 6 mice. The control group was injected with PBS and the treatment group was injected with 0.5 mg 1,3cPP in PBS i.p. in the lower left abdomen on day 1,3,6, and 8. Tumor diameters were serially measured with calipers assuming a hemiellipsoid shape, where volume=[…]×(length/2)×(width/2)×(thickness/2).

PR mRNA in MCF-7 cells = experiment: Quantitative RT-PCR of PR mRNA in MCF-7 cells; assay type: cell-based, human; settings: 20 μM
Description: as §1, with “The analogous data for PR are depicted for MCF-7 cells in FIGS. 5A-B where at 20 μM, there was a 3 fold increase in the normalized PR mRNA expression on the 8th day. This increase receded to about 1.5-fold by the 11th day.” left out
as §2

[1] = 0.5 mg i.p. on day 1,3,6 and 8, athymic CD-1 mice

SMILES: O=P1(O)OCCCO1 [1,3-cPP, 1,3-cyclic propanediol phosphate]
- increase in the normalized ER-α mRNA transcription (ER-α mRNA in MCF-7 cells; 50 μM, 11th day): 10 fold
- increase in the normalized ER-α mRNA transcription (ER-α mRNA in MCF-7 cells; 100 μM, day 6, normalized to GAPDH, relative to control): 6 fold
- increase in the normalized ER-α mRNA transcription (ER-α mRNA in MCF-7 cells; 100 μM, day 14, normalized to GAPDH, relative to control): 6 fold
- changes in appearance, body weight or behavior upon injection (MCF-7 cells; [1]): no changes in appearance, body weight or behavior
- toxic effects during the course of the experiment (MCF-7 cells; [1]): No observable toxic effects
- tumor size, treatment versus control group (MCF-7 cells; 0.5 mg i.p. on day 1,3,6 and 8, day 36 (P=0.032) and day 43 (P=0.032), MCF-7 tumors in athymic CD-1 mice): significant difference
- increase in the normalized PR mRNA expression (PR mRNA in MCF-7 cells; 8th day): 3 fold
- increase in the normalized PR mRNA expression (PR mRNA in MCF-7 cells; 11th day): about 1.5 fold

Source: patent US20060014726A1, “Derivatives of cyclic1, 3- propanediol phosphate and their action in differentiation therapy” (priority 2002, published 2006)
